According to ChEMBL document CHEMBL1158300, “New Cephalotaxus Alkaloids from Cephalotaxus harringtonia var. drupacea” (J Nat Prod, 1996):
In brackets after ≈: the same amount, converted by molar mass.

test system: P388; assay: Cytotoxicity against mouse P388 cells; format: functional, cell-based

SMILES	IC50
COC(=O)C[C@](O)(CCCCC(C)C)C(=O)O[C@@H]1C(OC)=C[C@]23CCCN2CCc2cc4c(cc2[C@H]13)OCO4 [BISHOMODEOXYHARRINGTONINE]	0.024 µg/mL (≈ 0.0441 µM)
COC(=O)C[C@](O)(CCCC(C)C)C(=O)O[C@@H]1C(OC)=C[C@]23CCCN2CCc2cc4c(cc2[C@H]13)OCO4 [HOMODEOXYHARRINGTONINE]	0.056 µg/mL (≈ 0.106 µM)
COC(=O)C[C@](O)(CC(C)C)C(=O)O[C@@H]1C(OC)=C[C@]23CCCN2CCc2cc4c(cc2[C@H]13)OCO4 [NORDEOXYHARRINGTONINE]	0.027 µg/mL (≈ 0.0538 µM)
